Columns and labels:
[1] = Anti-inflammatory activity against HBE cells assessed as inhibition of LPS-induced IL-8 level at 5 uM pretreated for 30 mins followed by LPS treatment for 24 hrs by ELISA relative to control; format: functional; details: Homo sapiens, time 24.5 hrs
[2] = Anti-inflammatory activity against HBE cells assessed as inhibition of LPS-induced IL-6 level at 5 uM pretreated for 30 mins followed by LPS treatment for 24 hrs by ELISA relative to control; format: functional; details: Homo sapiens, time 24.5 hrs

| SMILES | inhibition at 5 µM [1] | inhibition at 5 µM [2] |
| --- | --- | --- |
| Cn1cc(-c2ccnc(N)n2)c2ccccc21 | 38% | 37% |
| Nc1cccc(Nc2nccc(Nc3ccc(F)cc3)n2)c1 | 56% | 54% |
| COc1ccccc1Oc1ccnc(Nc2cccc(N)c2)n1 | 56% | 54% |
| Cn1cc(-c2ccnc(Nc3ccc(Cl)c(N)c3)n2)c2ccccc21 | 56% | 54% |
| COc1cccc(OC)c1Nc1ccnc(Nc2cccc(N)c2)n1 | 56% | 54% |
| Cn1cc(-c2ccnc(Nc3cccc(C(F)(F)F)c3)n2)c2ccccc21 | 56% | 54% |
| Nc1cccc(Nc2nccc(Oc3ccc4[nH]ccc4c3)n2)c1 | > 65% | > 65% |
| COc1cccc(Oc2ccnc(Nc3cccc(N)c3)n2)c1 | 56% | 54% |
| COc1ccc(Nc2nccc(-c3cn(C)c4ccccc34)n2)cc1 | 56% | 54% |
| CCOc1ccc(Nc2ccnc(Nc3cccc(N)c3)n2)cc1 | 56% | 54% |
| COc1ccc(C)cc1Nc1ccnc(Nc2cccc(N)c2)n1 | 56% | 54% |
| Cc1cccc(Nc2ccnc(Nc3cccc(N)c3)n2)c1C | 56% | 54% |
| Cn1cc(-c2ccnc(Nc3ccc(F)cc3)n2)c2ccccc21 | 56% | 54% |
| Nc1cccc(Nc2nccc(Oc3cccc(N)c3)n2)c1 | 56% | 54% |
| Cn1nccc1Nc1nccc(-c2cn(C)c3ccccc23)n1 | 64% | 54% |
| Nc1ccc(Oc2ccnc(Nc3cccc(N)c3)n2)cc1 | 56% | 54% |
| COc1cc(OC)cc(Oc2ccnc(Nc3cccc(N)c3)n2)c1 | 56% | 54% |
| Nc1cccc(Nc2nccc(Nc3ccc(Br)cc3)n2)c1 | 56% | 54% |

| SMILES | inhibition at 5 µM [1] | inhibition at 5 µM [2] |
| --- | --- | --- |
| Cn1cc(-c2ccnc(Nc3ccc(F)c(N)c3)n2)c2ccccc21 | 56% | 54% |
| Cn1cc(-c2ccnc(Nc3cccc(O)c3)n2)c2ccccc21 | 56% | 54% |
| COc1c(Br)cccc1Nc1ccnc(Nc2cccc(N)c2)n1 | 56% | 54% |
| Nc1cccc(Nc2nccc(Sc3ccc(F)cc3)n2)c1 | 56% | 54% |
| Cn1ccc(Nc2nccc(-c3cn(C)c4ccccc34)n2)n1 | 56% | 54% |
| Cn1cc(-c2ccnc(Nc3ccccc3N)n2)c2ccccc21 | 69% | 61% |
| Nc1cccc(Nc2nccc(Nc3cccc(C(F)(F)F)c3)n2)c1 | 56% | 54% |
| COc1cccc(Nc2nccc(-c3cn(C)c4ccccc34)n2)c1 | 56% | 54% |
| Cn1cc(-c2ccnc(Nc3ccc(Cl)cc3)n2)c2ccccc21 | 56% | 54% |
| Cn1cc(-c2ccnc(Nc3cccc(C#N)c3)n2)c2ccccc21 | 56% | 54% |
| COc1cccc(Nc2ccnc(Nc3cccc(N)c3)n2)c1OC | 56% | 54% |
| Cc1ccccc1Nc1ccnc(Nc2cccc(N)c2)n1 | 56% | 54% |
| Cn1cc(-c2ccnc(Nc3ccc(N)cc3)n2)c2ccccc21 | 56% | 54% |
| Nc1cccc(Nc2nccc(Oc3ccc(OC(F)(F)F)cc3)n2)c1 | 56% | 54% |
| COc1cccc(Nc2ccnc(Nc3cccc(N)c3)n2)c1 | 56% | 54% |
| Nc1cccc(Nc2nccc(Nc3ccc4[nH]ccc4c3)n2)c1 | > 65% | > 65% |
| Nc1cccc(Nc2nccc(Nc3cccc(Cl)c3)n2)c1 | 56% | 54% |
